For one test, the system named is IL6. As to the kind of experiment: IL-6 Quantification Assay (ELISA), LPS-stimulated RAW 264.7. The test is classed as cell-based. Also on record: inhibition: dose or concentration left out as unconfirmed. The settings on record: Mus musculus, RAW264.7; read-out: IL-6: % inh.
Test [1] concerns Smad2/Smad3 phosphorylation. As to the kind of experiment: Phospho-Smad2/3 Inhibition Assay (western blot), Panc-1. The test is classed as cell-based, human. The following applies: at 10 μM, Panc-1 pancreatic cancer cell line; starred symbols = activation. The method, boiled down: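 Panc-1 cells (KRas G12D), starved overnight in 0.5% FBS, treated 3 h at 37° C with compound at 10 μM final (0.3% DMSO) or serial dilutions for IC50, then stimulated with 10 ng/ml TGF-b1 for 1 h. Phospho-Smad2 (Ser465/467) and phospho-Smad3 (Ser423/425) detected by western blot.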

Another test has as its system KRas wild type. As to the kind of experiment: Ras GTP Binding Domain Inhibition Assay (Ras Superfamily Assay). The following applies: for KRas wild type + SOS: % inh.: with SOS; for KRas wild type: % inh.: without SOS. Summed up:
(§1)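 His-tagged GTPases immobilised on nickel-coated plates, pre-incubated with compound (20 μM single point, or serial dilution for IC50) 3 h at room temperature, with or without 10-30 μg/mL Sos (residues 556-1049) in the final hour. Bound Cy3- or Cy5-GTP (100 nM, 45 min) measured by fluorescence after washing.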

A further test deals with KRas G12D mutant. The test is described as above. The following applies: for KRas G12D mutant + SOS: % inh.: with SOS; for KRas G12D mutant: % inh.: without SOS. Summed up:
as §1

Another test deals with T1, Rac-1 (Homo sapiens, UniProt P63000).
T1 construct: made in house
The test is described as above. The settings on record: read-out: Rac-1: % inh. The method, boiled down: as §1

Consider five compounds from patent US12459951B2, “Compounds that interact with RAS superfamily proteins for treatment of cancers, inflammatory diseases, rasopathies, and fibrotic disease” (SHY Therapeutics, LLC, priority 2022, dated 2025).

As to `COC[C@@H]1CC[C@@H]1CNc1nc(-c2ccccn2)nn2cc(-c3ccn(C(C)C)n3)c(C)c12` (racemic) [Compound 11, rac 6-(1-Isopropyl-1H-pyrazol-3-yl)-N-(((1S,2R)-2-(methoxymethyl)cyclobutyl)methyl)-5-methyl-2-(pyridin-2-yl)pyrrolo[2,1-f][1,2,4]triazin-4-amine], in the test on IL6, the inhibition was determined as 0%. The “% inh of Smad2/3 phosphorylation in Panc-1” value (from here on “% inh … in Panc-1”) in test [1] is 0 (0 = 0% inhibition). For the same compound, in the test on KRas wild type (20 μM compound), the “KRas wild type + SOS: % inh.” value is 0 (0 = 0% inhibition) and the “KRas wild type: % inh.” value is reported as 0 (0 = 0% inhibition). In the test with KRas G12D mutant (20 μM compound), the “KRas G12D mutant + SOS: % inh.” value is 0 (0 = 0% inhibition) and the “KRas G12D mutant: % inh.” value was “A (A = 1-25% inhibition)”. Also, the inhibition at 20 µM at Rac-1 is 0%.
Take `CO[C@H]1C[C@H](Nc2nc(-c3nccn3C)nn3cc(-c4ccc(CN)cc4)c(-c4ccccc4)c23)C1.Cl` [Compound 206, 6-(4-(Aminomethyl)phenyl)-N-((1r,3r)-3-methoxycyclobutyl)-2-(1-methyl-1H-imidazol-2-yl)-5-phenylpyrrolo[2,1-f][1,2,4]triazin-4-amine hydrochloride salt]: the inhibition in the test on IL6 fell in the range of 75 to 100%. The “% inh … in Panc-1” value in test [1] is given as “B (B = 26-45% inhibition)”. In addition, in the test with KRas wild type (at 20 μM), the “KRas wild type + SOS: % inh.” value was “A (A = 1-25% inhibition)” and the “KRas wild type: % inh.” value is recorded as “A (A = 1-25% inhibition)”. In the test with KRas G12D mutant (at 20 μM), the “KRas G12D mutant + SOS: % inh.” value is “A (A = 1-25% inhibition)” and the “KRas G12D mutant: % inh.” value is recorded as “A (A = 1-25% inhibition)”. Moreover, at Rac-1, the inhibition at 20 µM fell in the range of 1 to 25%.
As for `CO[C@H]1CC[C@@H](Nc2nc(-c3nccn3C)nn3cc(-c4ccncc4)c(-c4ccccc4)c23)C1` (racemic) [Compound 200, rac N-((1R,3S)-3-Methoxycyclopentyl)-2-(1-methyl-1H-imidazol-2-yl)-5-phenyl-6-(pyridin-4-yl)pyrrolo[2,1-f][1,2,4]triazin-4-amine], the inhibition with IL6 was in the range of 1 to 24%. The “% inh … in Panc-1” value in test [1] is “A (A = 1-25% inhibition)”. In addition, in the test with KRas wild type (at 20 μM), the “KRas wild type + SOS: % inh.” value was “B (B = 26-49% inhibition)” and the “KRas wild type: % inh.” value is recorded as “B (B = 26-49% inhibition)”. In addition, in the test on KRas G12D mutant (at 20 μM), the “KRas G12D mutant + SOS: % inh.” value is “B (B = 26-49% inhibition)” and the “KRas G12D mutant: % inh.” value was “B (B = 26-49% inhibition)”. Moreover, the inhibition at 20 µM at Rac-1 lay in the range of 26 to 49%.
On to `Cc1cnc2c(c1)CCN2c1nc(-c2nccn2C)nn2cc(-c3ccn(C)n3)c(C)c12` [Compound 239, 5-Methyl-2-(1-methyl-1H-imidazol-2-yl)-6-(1-methyl-1H-pyrazol-3-yl)-4-(5-methyl-2,3-dihydro-1H-pyrrolo[2,3-b]pyridin-1-yl)pyrrolo[2,1-f][1,2,4]triazine], for which the inhibition with IL6 was in the range of 50 to 74%. Also, in test [1], the “% inh … in Panc-1” value is given as 0 (0 = 0% inhibition). Moreover, in the test with KRas wild type (at 20 μM), the “KRas wild type + SOS: % inh.” value is given as “D (D = 76-100% inhibition)” and the “KRas wild type: % inh.” value is given as “D (D = 76-100% inhibition)”. In addition, in the test on KRas G12D mutant (at 20 μM), the “KRas G12D mutant + SOS: % inh.” value was “D (D = 76-100% inhibition)” and the “KRas G12D mutant: % inh.” value is listed as “D (D = 76-100% inhibition)”. Also, the inhibition at 20 µM at Rac-1 lay within 76 to 100%.
As to `CO[C@H]1C[C@H](S(=O)(=O)Nc2nc(-c3nccn3C)nn3cc(-c4ccccc4)c(-c4ccccc4)c23)C1` [Compound 214, (1r,3r)-3-Methoxy-N-(2-(1-methyl-1H-imidazol-2-yl)-5,6-diphenylpyrrolo[2,1-f][1,2,4]triazin-4-yl)cyclobutane-1-sulfonamide], the inhibition with IL6 was 1 to 24%. Moreover, the “% inh … in Panc-1” value in test [1] is “D (D = 76-100% inhibition)”. For the same compound, in the test on KRas wild type (at 20 μM), the “KRas wild type + SOS: % inh.” value is recorded as “C (C = 50-75% inhibition)” and the “KRas wild type: % inh.” value is “C (C = 50-75% inhibition)”. In the test with KRas G12D mutant (at 20 μM), the “KRas G12D mutant + SOS: % inh.” value is reported as “C (C = 50-75% inhibition)” and the “KRas G12D mutant: % inh.” value is “C (C = 50-75% inhibition)”. The inhibition at 20 µM on Rac-1 was 50 to 75%.
